Data published in patent US6737383B1, “Herbicidal oxadiazolidines” (priority 1999, dated 2004).

Experiments:
bedstraw = experiment: Test B pre/postemergence bedstraw; format: in vivo, Galium aparine
Method in brief: (§1)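 Test chemicals in a non-phytotoxic solvent mixture with surfactant were sprayed preemergence onto planted seeds and postemergence onto plants 2 to 18 cm tall (1- to 4-leaf stage). After twelve to sixteen days in a greenhouse, injury was visually rated against untreated controls from 0 (no effect) to 10 (complete control).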

blackgrass = experiment: Test B pre/postemergence blackgrass; format: in vivo, Alopecurus myosuroides
Method in brief: as §1

surinam grass = experiment: Test B pre/postemergence surinam grass; format: in vivo, Brachiaria decumbens
Method in brief: as §1

corn = experiment: Test B pre/postemergence corn; format: in vivo, Zea mays
Method in brief: as §1

giant foxtail = experiment: Test B pre/postemergence giant foxtail; format: in vivo, Setaria faberii
Method in brief: as §1

morningglory = experiment: Test B pre/postemergence morningglory; format: in vivo, Ipomoea hederacea
Method in brief: as §1

pigweed = experiment: Test B pre/postemergence pigweed; format: in vivo, Amaranthus retroflexus
Method in brief: as §1

rape = experiment: Test B pre/postemergence rape; format: in vivo, Brassica napus
Method in brief: as §1

soybean = experiment: Test B pre/postemergence soybean; format: in vivo, Glycine max
Method in brief: as §1

sugar beet = experiment: Test B pre/postemergence sugar beet; format: in vivo, Beta vulgaris
Method in brief: as §1

velvetleaf = experiment: Test B pre/postemergence velvetleaf; format: in vivo, Abutilon theophrasti
Method in brief: as §1

purple nutsedge = experiment: Test B pre/postemergence purple nutsedge; format: in vivo, Cyperus rotundus
Method in brief: as §1

rice = experiment: Test B flood test rice; format: in vivo, Oryza sativa
Method in brief: (§2)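 Each value is a visual injury score relative to controls, with 10 meaning complete control and 0 no effect. Evaluation took place twelve to sixteen days after the 2-leaf-stage plants were treated and kept in the greenhouse.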

smallflower flatsedge = experiment: Test B flood test smallflower flatsedge; format: in vivo, Cyperus difformis
Method in brief: as §2

duck salad = experiment: Test B flood test duck salad; format: in vivo, Heteranthera limosa
Method in brief: as §2

bamyardgrass = experiment: Test B flood test barnyardgrass; format: in vivo, Echinochloa crus-galli
Method in brief: as §2

[1] = Postemergence, Rate 62 g/ha, scale 0 to 10, 0 is no effect, 10 is complete control
[2] = Postemergence, Rate 250 g/ha, scale 0 to 10, 0 no effect, 10 complete control
[3] = Preemergence, Rate 62 g/ha, scale 0 to 10, 0 is no effect, 10 is complete control
[4] = Preemergence, Rate 125 g/ha, scale 0 to 10 (0 no effect, 10 complete control)
[5] = Preemergence, Rate 250 g/ha, scale of 0 to 10 where 0 is no effect and 10 is complete control
[6] = Preemergence, Rate 500 g/ha, scale 0 (no effect) to 10 (complete control)
[7] = Rate 125 g/ha, Postemergence, scale 0 to 10, 0 no effect, 10 complete control
[8] = Rate 500 g/ha, Postemergence, 0 to 10 scale (0 no effect, 10 complete control)
[9] = Rate 125 g/ha, Postemergence section (flood test species), scale 0 to 10, 0 no effect, 10 complete control
[10] = Rate 125 g/ha, Pre-emergence, flood test species, scale 0 to 10 where 0 is no effect and 10 is complete control
[11] = Rate 250 g/ha, headed Pre-emergence (flood test species), scale 0 to 10 (0 no effect, 10 complete control)
[12] = Rate 500 g/ha, Postemergence section of Table B, 0 to 10 scale (0 no effect, 10 complete control)
[13] = Rate 500 g/ha, headed Pre-emergence (flood test species), scale 0 to 10 (0 no effect, 10 complete control)
[14] = Rate 1000 g/ha, Pre-emergence (as headed), scale 0 to 10
[15] = flood test, listed under Postemergence, Rate 250 g/ha, scale 0 to 10, 0 no effect, 10 complete control

COc1ccc(-n2c(=O)on(C(=O)N(c3ccc(F)cc3)C(C)C)c2=O)c(C)c1 [Compound 35]
Bedstraw plant response rating (bedstraw; [1]): 0 | Bedstraw plant response rating (bedstraw; [2]): 3 | Plant response rating, Bedstraw (bedstraw; [3]): 0 | Plant response rating, Bedstraw (bedstraw; [4]): 0 | Plant response rating, Bedstraw (bedstraw; [5]): 0 | Bedstraw plant response rating (bedstraw; [6]): 0 | Bedstraw plant response rating (bedstraw; [7]): 2 | Bedstraw plant response rating (bedstraw; [8]): 6 | Blackgrass plant response rating (blackgrass; [1]): 0 | Blackgrass plant response rating (blackgrass; [2]): 1 | Plant response rating, Blackgrass (blackgrass; [3]): 0 | Plant response rating, Blackgrass (blackgrass; [4]): 2 | Plant response rating, Blackgrass (blackgrass; [5]): 2 | Blackgrass plant response rating (blackgrass; [6]): 3 | Blackgrass plant response rating (blackgrass; [7]): 0 | Blackgrass plant response rating (blackgrass; [8]): 7 | B. signalgrass plant response rating (surinam grass; [1]): 0 | B. signalgrass plant response rating (surinam grass; [2]): 0 | Plant response rating, B. signalgrass (surinam grass; [3]): 0 | Plant response rating, B. signalgrass (surinam grass; [4]): 0 | Plant response rating, B. signalgrass (surinam grass; [5]): 3 | B. signalgrass plant response rating (surinam grass; [6]): 7 | B. signalgrass plant response rating (surinam grass; [7]): 0 | B. signalgrass plant response rating (surinam grass; [8]): 0 | Corn plant response rating (corn; [1]): 0 | Corn plant response rating (corn; [2]): 0 | Plant response rating, Corn (corn; [3]): 0 | Plant response rating, Corn (corn; [4]): 0 | Plant response rating, Corn (corn; [5]): 0 | Corn plant response rating (corn; [6]): 0 | Corn plant response rating (corn; [7]): 0 | Corn plant response rating (corn; [8]): 0 | Giant foxtail plant response rating (giant foxtail; [1]): 0 | Giant foxtail plant response rating (giant foxtail; [2]): 1 | Plant response rating, Giant foxtail (giant foxtail; [3]): 3 | Plant response rating, Giant foxtail (giant foxtail; [4]): 7 | Plant response rating, Giant foxtail (giant foxtail; [5]): 10 | Giant foxtail plant response rating (giant foxtail; [6]): 10 | Giant foxtail plant response rating (giant foxtail; [7]): 0 | Giant foxtail plant response rating (giant foxtail; [8]): 7 | Morningglory plant response rating (morningglory; [1]): 4 | Morningglory plant response rating (morningglory; [2]): 8 | Plant response rating, Morningglory (morningglory; [3]): 0 | Plant response rating, Morningglory (morningglory; [4]): 0 | Plant response rating, Morningglory (morningglory; [5]): 0 | Morningglory plant response rating (morningglory; [6]): 0 | Morningglory plant response rating (morningglory; [7]): 7 | Morningglory plant response rating (morningglory; [8]): 8 | Redroot pigweed plant response rating (pigweed; [1]): 0 | Redroot pigweed plant response rating (pigweed; [2]): 9 | Plant response rating, Redroot pigweed (pigweed; [3]): 0 | Plant response rating, Redroot pigweed (pigweed; [4]): 0 | Plant response rating, Redroot pigweed (pigweed; [5]): 0 | Redroot pigweed plant response rating (pigweed; [6]): 0 | Redroot pigweed plant response rating (pigweed; [7]): 7 | Redroot pigweed plant response rating (pigweed; [8]): 9 | Rape plant response rating (rape; [1]): 0 | Rape plant response rating (rape; [2]): 0 | Plant response rating, Rape (rape; [3]): 0 | Plant response rating, Rape (rape; [4]): 0 | Plant response rating, Rape (rape; [5]): 0 | Rape plant response rating (rape; [6]): 0 | Rape plant response rating (rape; [7]): 0 | Rape plant response rating (rape; [8]): 2 | Soybean plant response rating (soybean; [1]): 1 | Soybean plant response rating (soybean; [2]): 1 | Plant response rating, Soybean (soybean; [3]): 0 | Plant response rating, Soybean (soybean; [4]): 0 | Plant response rating, Soybean (soybean; [5]): 0 | Soybean plant response rating (soybean; [6]): 0 | Soybean plant response rating (soybean; [7]): 1 | Sugarbeets plant response rating (sugar beet; [1]): 0 | Plant response rating, Sugarbeets (sugar beet; [3]): 0 | Plant response rating, Sugarbeets (sugar beet; [4]): 0 | Plant response rating, Sugarbeets (sugar beet; [5]): 0 | Sugarbeets plant response rating (sugar beet; [6]): 0 | Sugarbeets plant response rating (sugar beet; [7]): 3 | Velvetleaf plant response rating (velvetleaf; [1]): 0 | Velvetleaf plant response rating (velvetleaf; [2]): 0 | Plant response rating, Velvetleaf (velvetleaf; [3]): 0 | Plant response rating, Velvetleaf (velvetleaf; [4]): 0 | Plant response rating, Velvetleaf (velvetleaf; [5]): 0 | Velvetleaf plant response rating (velvetleaf; [6]): 0 | Velvetleaf plant response rating (velvetleaf; [7]): 0 | Nutsedge plant response rating (purple nutsedge; [1]): 0 | Nutsedge plant response rating (purple nutsedge; [2]): 0 | Plant response rating, Nutsedge (purple nutsedge; [3]): 0 | Plant response rating, Nutsedge (purple nutsedge; [4]): 0 | Plant response rating, Nutsedge (purple nutsedge; [5]): 0 | Nutsedge plant response rating (purple nutsedge; [6]): 0 | Nutsedge plant response rating (purple nutsedge; [7]): 0 | Nutsedge plant response rating (purple nutsedge; [8]): 0 | Rice plant response rating (rice; [1]): 0 | Rice plant response rating (rice; [9]): 0 | Rice plant response rating (rice; [10]): 0 | Rice plant response rating (rice; [11]): 0 | Rice plant response rating (rice; [12]): 0 | Plant response rating, Rice (rice; [13]): 0 | Rice plant response rating (rice; [14]): 0 | Rice plant response rating (rice; [15]): 0 | S. Flatsedge plant response rating (smallflower flatsedge; [1]): 0 | S. Flatsedge plant response rating (smallflower flatsedge; Pre-emergence, Rate 1000 g/ha, scale 0 to 10 (0 no effect, 10 complete control)): 0 | S. Flatsedge plant response rating (smallflower flatsedge; [9]): 0 | S. Flatsedge plant response rating (smallflower flatsedge; [10]): 0 | S. Flatsedge plant response rating (smallflower flatsedge; [11]): 0 | Plant response rating, S. Flatsedge (smallflower flatsedge; [13]): 0 | S. Flatsedge plant response rating (smallflower flatsedge; [15]): 0 | Ducksalad plant response rating (duck salad; [1]): 0 | Ducksalad plant response rating (duck salad; [9]): 0 | Ducksalad plant response rating (duck salad; [10]): 0 | Ducksalad plant response rating (duck salad; [11]): 0 | Ducksalad plant response rating (duck salad; [12]): 0 | Plant response rating, Ducksalad (duck salad; [13]): 0 | Ducksalad plant response rating (duck salad; [14]): 0 | Ducksalad plant response rating (duck salad; [15]): 0 | Barnyardgrass plant response rating (bamyardgrass; [1]): 0 | Barnyardgrass plant response rating (bamyardgrass; [9]): 0 | Barnyardgrass plant response rating (bamyardgrass; [10]): 0 | Barnyardgrass plant response rating (bamyardgrass; [11]): 0 | Barnyardgrass plant response rating (bamyardgrass; [12]): 0 | Plant response rating, Barnyardgrass (bamyardgrass; [13]): 0 | Barnyardgrass plant response rating (bamyardgrass; [14]): 0 | Barnyardgrass plant response rating (bamyardgrass; [15]): 0
